One may read the IC50 as the concentration needed to halve the response being measured. High values mean weaker potency, low ones greater potency.

The values below come from US7166744B2, “Retinoid derivatives and methods for producing said compounds and anti-cancer pharmaceutical composition comprising said compounds” (Chebigen Co., Ltd., priority 2001, dated 2007).

Entries after “also recorded” stand apart in the source; their conditions may differ.

Holding throughout (format): cell-based
In assay [1] the test system is OVCAR-3 ovary cancer cells. Description: MTT proliferation assay, OVCAR-3. The following applies: ovarian cancer. How it is done: The effects of test compounds on proliferation of various cancer cells was examined by 3-(4,5-dimethylthiazol-2-yl)-2,5-diphenyltetrazolium bromide (MTT, Sigma) assay in a dose dependent manner. In the MTT assay, colon, liver, cervix, ovary, and breast cancer cell lines were treated with test compounds at various concentrations. Living cancer cells reduce MTT to dark blue MTT formazan that would be measured by absorbance.
Colon cancer cells, HCT116, DLD-1 and HT29, cervix cancer cells, HeLa and CaSki, ovary cancer cells, SKOV-3, 2774 and OVCAR-3, liver cancer cells, SK-Hep-1, PLCPRF5 and HepG2, and breast cancer cells, ZR75-1 and MDA-MB 231 were seeded at an initial density of 3000 cells per well in 96-well plates. After attachment of cells to the walls of the wells, the medium containing fresh retinoid was treated with various concentrations (0.5 μM, 1 μM, 2.5 μM, 5 μM, 10 μM) for 48 hours. 50 μl of MTT solution (2 mg/ml in PBS) was added to cell culture media. The reaction micture was incubated at 37° C. in a 5% CO2 atmosphere for 4 hours. The supernatant was removed and 150 μl of DMSO was added. The optical density was measured spectrophotometrically at 550 nm. […] For other retinoid derivatives according to the present invention, absorbances were measured by this procedure and IC50 values, concentrations required for 50% growth inhibition, were determined.

In assay [2] the test system is RAR subfamilies (RARα, RARβ, RARγ). Description: CAT ELISA reporter assay of retinoid receptors (Experimental Example 4). The method, then:
As the reporter gene, chloramphenicol acetyltransferase (CAT) gene was used. […] The colon cancer cells were plated at 10^6 in 6-well. At next day, the mixture of DNA (2 μg) and SuperFect reagent was added to the cells. After overnight transfection, the media were exchanged with fresh media containing retinoid at various concentrations for 24 hours and washed with cold 1×PBS. The cells were collected, suspended in 100 μl of 0.25M Tris-HCl (pH 7.6) and lysed by 3 freezing-thawing cycles. After centrifugation (12,000×g, 10 min, 4° C.), 100 μl of the supernatant was recovered. 10 μl of the recovered supernatant was tested for activity of β-galactosidase according to standard prosedures (Sambrook et al., 1989) and 50 μl of the recovered supernatant were tested for activity of the reporter by the CAT ELISA (Boeringer Mannheim, Germany) method. The obtained data for activity of the reporter was normalized with respect to β-gal activity for comparison.
On the technique in general: ELISA stands for enzyme-linked immunosorbent assay.

Assay [3] deals with MCF-7 breast cancer cells. Description: DNA fragmentation assay (agarose gel), MCF-7. The following applies: MCF-7, 2.5, 5.0, 10 μM, 48 hours. How it is done: After treated with each retinoid derivative at various concentrations (2.5, 5.0, 10 μM) for 48 hours, HCT116 or MCF-7 cells were poured in 1 mL of PBS and centrifuged at a rate of 13,000 rpm at 4° C. for 1 min. The resulting cell pellets were resuspended in 700 μl of lysis buffer (500 mM Tris, 100 mM EDTA, 0.5% SDS) containing 17.5 μl of proteinase K (20 mg/ml), and incubated on 55° C. water bath for 3 hours. The lysates were mixed with 700 μl of phenol solution while slowly stirring and centrifuged at 12,000 rpm for 5 min. The supernatants were separated and extracted with phenol once more. The supernatants were mixed with 600 μl of 100% ethanol and 60 μl of 3M NaOAc (pH 7.0) and left at −20° C. for 2 hours. The supernatants were removed by centrifugation at 12,000 rpm for 10 min to obtain pellets. After 70% ethanol washing and drying, DNA pellet was resuspended in 100 μl of TE (Tris-EDTA) buffer and treated with RNase A. The obtained samples were electrophoresed for 2 hours at 75 V on 1.8% agarose gels.

Assay [4] concerns HCT116 colon cancer cells. Nature of the assay: Optical microscopy of treated cells, HCT116. The following applies: HCT116, 5 μM, 48 hours, compared to HPR. The method, then:
(§1) Both colon cancer HCT116 cells and breast cancer MCF-7 cells were treated with 5 μM of the retinoid derivatives KCBG10 and KCBG41 for 48 hours, and photographed by optical microscope (×200). As a control compound, HPR was used at the same concentration. In FIG. 2, the control represents non-treated cells.

Assay [5] concerns MCF-7 breast cancer cells. Nature of the assay: Optical microscopy of treated cells, MCF-7. The following applies: MCF-7, 5 μM, 48 hours, compared to HPR. The method, then:
as §1

In assay [6] the test system is MMP-3 mRNA expression. Nature of the assay: RT-PCR of MMP-3 mRNA in HCT116. The following applies: HCT116, 1 μM, 36 hours. How it is done:
Previously, it was shown that the synthetic retinoid derivatives inhibit the transcriptional activity of AP-1. Also, it is well known that MMP (matrix metalloproteinase), a main target gene of AP-1 is involved in metastasis of cancer cells. Therefore, the inhibitive effects of the retinoid derivatives on metastasis of cancer was examined by RT-PCR analysis. Colon cancer HCT116 cells were treated with 1 μM retinoid for 36 hours. RNA was isolated from the cells and mRNA expression levels of MMP-1, -2 and -3 were analyzed by RT-PCR. […] As the control, GAPDH was used and it was confirmed that its expression was not affected by retinoid. Meanwhile, the expression level of MMP-3 was affected weakly by KCBG40, intermediately by KCBG41 but strongly by KCBG10 (FIG. 9).

Assay [7] deals with cancer cells. Description: Acridine orange / ethidium bromide double staining. The following applies: 10 μM, 96 hours. The text has this:
Therefore, the anti-proliferation effect of KCBG60 is due to the induction of apoptosis.

Assay [8] deals with RARs and RXRs. Description: CAT reporter assay, summary for RARs and RXRs (Experimental Example 9). The following applies: 1 μM. An excerpt: In order to confirm the effect of KCBG60 according to the present invention on retinoid receptor activity, cells were cotransfected with expression vectors of receptor subfamilies and reporter genes. As the reporter gene, chloramphenicol acetyltransferase (CAT) with a transcription control site reactive to respective receptors was used.
In the transcriptional activity for RXR type receptors, similar results were obtained.
(In general: Reporter assays use an easily measured gene product as a stand-in for the process of interest.)

In assay [9] the test system is cancer cells. Nature of the assay: FACS analysis of DNA content. The following applies: 10 μM, 96 hours. An excerpt: In order to quantitatively determine the levels of apoptosis, the cells treated with the same conditions as above were subjected to FACS analysis to measure DNA contents (FIG. 11).
A general note: A flow cytometer gives signals particle by particle.

`CC1=C(/C=C/C(C)=C/C=C/C(C)=C/C(=O)O)C(C)(C)CCC1` [ATRA, All-trans-retinoic acid, reference compound] came in with an IC50 in [1] (Homo sapiens, OVCAR-3, 48 hours) greater than 100 µM.

Consider `CCCC(=O)Nc1cc(NC(=O)/C=C(C)/C=C/C=C(C)/C=C/C2=C(C)CCCC2(C)C)ccc1O` [KCBG41, (2E,4E,6E,8E)-[3,7-dimethyl-9-(2,6,6-trimethylcyclohex-1-enyl)-nona-2,4,6,8-tetraenoylamino]-(3-butyrylamino-4-hydroxy)phenylamide], for which the “retinoid receptor activity relative to ATRA and HPR” value in [2] (three RAR subfamilies, as the concentration increased) is given as “about 50%”. In assay [3], the “DNA ladder (DNA fragmentation)” value is given as “DNA band of the ladder shape caused by DNA fragmentation was well detected”. The compound also came in with an IC50 in assay [1] (48 hours) of 3.7 µM. Moreover, the entries for the “number of viable cancer cells (microscopy)” value in [4] and in assay [5] were “significant reductions in the number of viable cancer cells; also recorded: more effective on HCT116 than other derivatives” and “significant reductions in the number of viable cancer cells”, respectively. For the same compound, the “effect on MMP-3 mRNA expression level” value in assay [6] is listed as “intermediately”.

For the compound `CCCC(=O)Oc1ccc(NC(=O)/C=C(C)/C=C/C=C(C)/C=C/C2=C(C)CCCC2(C)C)cc1` [KCBG60], the “acridine orange / ethidium bromide staining colour of cells” value in assay [7] was “cells were stained with orange color”. The “activity for RARs and RXRs” value in assay [8] was “activity as low as the control and phenyl butylate-treated group; also recorded: almost no activity for RARs and RXRs”. Moreover, the “relative rate of dead cells having a DNA content of 2N or less” value in [9] is recorded as “much higher rates than other groups”.

As to `CCCC(=O)Oc1cc(O)ccc1NC(=O)/C=C(C)/C=C/C=C(C)/C=C/C1=C(C)CCCC1(C)C` [KCBG10, 2.2-[(2E,4E,6E,8E)-3,7-Dimethyl-9-(2,6,6-trimethylcyclohex-1-enyl)-nona-2,4,6,8-tetraenoylamino]-5-hydroxyphenylbutanoate], the “retinoid receptor activity (CAT reporter)” value in assay [2] (concentration dependence) was “did not have activity at a low concentration but showed an increase of activity as the concentration increased”. The “DNA ladder (DNA fragmentation)” value in assay [3] is given as “DNA band of the ladder shape caused by DNA fragmentation was well detected; also recorded: at a low concentration showed DNA fragmentation”. The IC50 in assay [1] (48 hours) came to 0.8 µM. Besides, the “number of viable cancer cells (microscopy)” value in assay [4] was “significant reductions in the number of viable cancer cells”; in [5] it was “significant reductions in the number of viable cancer cells; also recorded: kills MCF-7 cells much more than other derivatives”. Further, the “effect on MMP-3 mRNA expression level” value in [6] was “strongly”.

Regarding phenyl butylate, the “acridine orange / ethidium bromide staining colour of cells” value in assay [7] is listed as “cells remained normal green color”.

As for `CC1=C(/C=C/C(C)=C/C=C/C(C)=C/C(=O)Nc2ccc(O)cc2)C(C)(C)CCC1` [HPR, (2E,4E,6E,8E)-[3,7-dimethyl-9-(2,6,6-trimethylcyclohex-1-enyl)-nona-2,4,6,8-tetraenoylamino]-4-hydroxyphenylamide], the “DNA ladder (DNA fragmentation)” value in assay [3] is on record as “did not show any DNA ladder”. Besides, half-maximal inhibition in assay [1] (48 hours) (IC50) required 8 µM. In addition, the “activity relative to ATRA for all 3 RARs” value in assay [8] was “about 50%”. Further, the “relative rate of dead cells having a DNA content of 2N or less” value in assay [9] was “much higher rates than other groups”.
